Experimental data from publication PMC9081605, “A High-Throughput Toxicity Screen of 42 Per- and Polyfluoroalkyl Substances (PFAS) and Functional Assessment of Migration and Gene Expression in Human Placental Trophoblast Cells” (Frontiers in Toxicology, 2022).
Entries after “also recorded” stand apart in the source; their conditions may differ.

System: JEG-3 cells
Test: Gene expression, custom NanoString code set of 46 genes
Type: cell-based, human
Procedure: JEG-3 cells were seeded at a density of 80,000 cells per well in six well plates and allowed to adhere overnight (24 h). The following day, media was removed and replaced with exposure media, then returned to the incubator for 24 h. The test compounds included non-cytotoxic concentrations of PFOA (0, 1, and 100 µM) and GenX (0, 3, 300 µM). These test compounds were selected a priori due to their high public health relevance. Each 6 well plate contained the three concentrations for either PFOA or GenX, with each condition in technical duplicate. Plates containing these PFOA or GenX exposure conditions were replicated three times (N = 3). After 24 h, exposure media was aspirated and cells were washed in ice cold 1xPBS, which was then aspirated. Each well received 500 µl of TRIzol reagent (Thermo Fisher Scientific, MA, United States) and cells were harvested in the TRIzol using a cell scraper. Technical duplicate wells within a plate were combined to generate a single sample of ∼1,000 µl. RNA was isolated from the resulting cellular homogenate using RNeasy Mini Kits (Qiagen, Hilden, Germany). Isolated RNA quality was validated and concentration determined using a NanoDrop 2000 (Thermo Fisher Scientific, MA, United States). 100 ng of mRNA from each sample was then analyzed using a custom gene expression code set (NanoString, Seattle, WA, United States). The custom code set included 46 genes selected for their downstream involvement in placental development (e.g., WNT4), endocrine signaling (e.g., CYP19A1), fetal growth/nutrient sensing (e.g., IGF2), inflammation (e.g., IL6), oxidative stress (e.g., SOD1, GPX1), and xenobiotic transport/metabolism (e.g., ABCG2, MRP3).
Gene expression data were quantified using the nCounter Digital Analyzer (NanoString, Seattle, WA, United States) and raw and adjusted counts were generated with nSolver (v4.0) software (NanoString, Seattle, WA, United States). Data were adjusted utilizing the manufacturer’s positive and negative experimental control probes, as well as housekeeping genes (ACTA2, ACTB, B2M, LDHA, RNA18S5, and ROLYR2L). All samples passed nSolver’s initial QA/QC controls and replicates were very well correlated with R ^2 values greater than 0.99. Adjusted data were then imported into Partek v7.0 (St. Louis, MO, United States), log2 transformed and quantile normalized for further QA/QC and statistical analyses. Genes with mRNA counts below the detection threshold of 20 were removed due to suboptimal probe hybridization (N = 2 genes for GenX; GH2 and IGFBP5). Fold change values were analyzed by ANOVA with post hoc false discovery rate adjustment (FDR) of p < 0.1. Normalized gene expression values were visualized using pheatmap with Euclidean clustering of genes and concentration groups ([Kolde and Kolde, 2015]).

## O=C(O)C(F)(F)C(F)(F)C(F)(F)C(F)(F)C(F)(F)C(F)(F)C(F)(F)F [Perfluorooctanoic acid]
1 µM, 24 h
  11BHSD2 gene expression, fold change over untreated control: -1.06
  17BHSD1 gene expression, fold change over untreated control: -1.02
  ABCG2 gene expression, fold change over untreated control: -1.07
  AHR gene expression, fold change over untreated control: -1.09
  AHRR gene expression, fold change over untreated control: significantly altered
  CAT gene expression, fold change over untreated control: 1.02
  CGB5 gene expression, fold change over untreated control: 1.00
  COX2 gene expression, fold change over untreated control: -1.11
  CTNNB1 gene expression, fold change over untreated control: 1.00
  CYP1A1 gene expression, fold change over untreated control: 1.05
  CYP3A5 gene expression, fold change over untreated control: 1.28
  CYP3A7 gene expression, fold change over untreated control: 1.15
  CYP19A1 gene expression, fold change over untreated control: -1.05
  EGFR gene expression, fold change over untreated control: 1.07
  ENG gene expression, fold change over untreated control: 1.02
  ESRRA gene expression, fold change over untreated control: 1.00
  ESRRG gene expression, fold change over untreated control: -1.04
  GH2 gene expression, fold change over untreated control: 1.02
  GHR gene expression, fold change over untreated control: 1.00
  GPER1 gene expression, fold change over untreated control: 1.02
  GPX1 gene expression, fold change over untreated control: 1.00
  HIF1A gene expression, fold change over untreated control: 1.00
  IGF2 gene expression, fold change over untreated control: 1.00
  IGFBP5 gene expression, fold change over untreated control: -1.13
  IGFR1 gene expression, fold change over untreated control: 1.03
  IGFR2 gene expression, fold change over untreated control: 1.05
  IL6 gene expression, fold change over untreated control: -1.05
  MRP1 gene expression, fold change over untreated control: -1.03
  MRP2 gene expression, fold change over untreated control: 1.09
  MRP3 gene expression, fold change over untreated control: -1.08
  NFKB1 gene expression, fold change over untreated control: 1.00
  NFKB2 gene expression, fold change over untreated control: 1.00
  NR3C1 gene expression, fold change over untreated control: 1.09
  PGF gene expression, fold change over untreated control: 1.00
  PMM1 gene expression, fold change over untreated control: -1.03
  ROLYR2L gene expression, fold change over untreated control: 1.00
  SLC2A1 gene expression, fold change over untreated control: -1.02
  SOD1 gene expression, fold change over untreated control: 1.00
  TGFB1 gene expression, fold change over untreated control: 1.00
  VEGFA gene expression, fold change over untreated control: 1.00
  VEGFB gene expression, fold change over untreated control: -1.00
  WNT4 gene expression, fold change over untreated control: 1.25
  WNT6 gene expression, fold change over untreated control: -1.04
  WNT7B gene expression, fold change over untreated control: 1.06
  mTOR gene expression, fold change over untreated control: 1.00
100 µM, 24 h
  11BHSD2 gene expression, fold change over untreated control: -1.03
  AHR gene expression, fold change over untreated control: 1.08
  AHRR gene expression, fold change over untreated control: 1.00
  CAT gene expression, fold change over untreated control: -1.06
  CGB5 gene expression, fold change over untreated control: -1.15
  COX2 gene expression, fold change over untreated control: 1.03
  CTNNB1 gene expression, fold change over untreated control: 1.00
  CYP1A1 gene expression, fold change over untreated control: 1.18
  CYP2E1 gene expression, fold change over untreated control: 1.00
  CYP3A5 gene expression, fold change over untreated control: -1.18
  CYP3A7 gene expression, fold change over untreated control: -1.22
  CYP19A1 gene expression, fold change over untreated control: 1.00
  EGFR gene expression, fold change over untreated control: -1.07
  ENG gene expression, fold change over untreated control: -1.19
  ESRRA gene expression, fold change over untreated control: 1.00
  ESRRG gene expression, fold change over untreated control: -1.16
  GH2 gene expression, fold change over untreated control: 1.12
  GHR gene expression, fold change over untreated control: 1.15
  GPER1 gene expression, fold change over untreated control: -1.05
  GPX1 gene expression, fold change over untreated control: non-significant trend of decreased expression
  HIF1A gene expression, fold change over untreated control: 1.00
  IGF2 gene expression, fold change over untreated control: -1.00
  IGFBP5 gene expression, fold change over untreated control: -1.02
  IGFR1 gene expression, fold change over untreated control: 1.08
  IGFR2 gene expression, fold change over untreated control: significantly altered
  IL6 gene expression, fold change over untreated control: 1.10
  MRP1 gene expression, fold change over untreated control: -1.06
  MRP2 gene expression, fold change over untreated control: -1.03
  MRP3 gene expression, fold change over untreated control: -1.12
  NFKB1 gene expression, fold change over untreated control: 1.03
  NFKB2 gene expression, fold change over untreated control: 1.00
  NR3C1 gene expression, fold change over untreated control: 1.00
  PGF gene expression, fold change over untreated control: -1.00
  PMM1 gene expression, fold change over untreated control: 1.07
  ROLYR2L gene expression, fold change over untreated control: 1.00
  SLC2A1 gene expression, fold change over untreated control: -1.11
  SOD1 gene expression, fold change over untreated control: 1.00
  TGFB1 gene expression, fold change over untreated control: -1.18
  VEGFA gene expression, fold change over untreated control: 1.08
  VEGFB gene expression, fold change over untreated control: -1.04
  WNT4 gene expression, fold change over untreated control: significantly altered
  WNT6 gene expression, fold change over untreated control: -1.02
  WNT7B gene expression, fold change over untreated control: 1.06
  mTOR gene expression, fold change over untreated control: 1.00
100 µM, 24 h, listed as PFOA
  17BHSD1 gene expression, fold change over untreated control: significantly altered; also recorded: significant increase
  ABCG2 gene expression, fold change over untreated control: upregulation; also recorded: significantly altered
After 24 h of exposure
  lowest concentration inducing significant dysregulated expression of placental genes: 1 µM
